Measurements: the NIST ThermoML archive (doi:10.1021/acs.jced.8b00554)

Experiment: xn = mol fraction of the nth substance listed
Settings: 343.15 K, Liquid, Vibrating tube method

CCCCCCCC [octane] + CCCO
Settings	mass density [kg/m3]
100 kPa, x2 = 0.1631	665.21
100 kPa, x2 = 0.2111	667.28
100 kPa, x2 = 0.3158	672.81
100 kPa, x2 = 0.4411	681.54
100 kPa, x2 = 0.7301	709.96
100 kPa, x2 = 0.8823	734.38
1000 kPa, x2 = 0.8823	735.58
1010 kPa, x2 = 0.2111	668.8
1010 kPa, x2 = 0.4411	682.72
1010 kPa, x2 = 0.7301	711.47
1020 kPa, x2 = 0.1631	666.65
1020 kPa, x2 = 0.3158	674.29
2000 kPa, x2 = 0.1631	667.79
2010 kPa, x2 = 0.2111	669.99
2010 kPa, x2 = 0.4411	683.85
2010 kPa, x2 = 0.8823	736.66
2020 kPa, x2 = 0.3158	675.48
2020 kPa, x2 = 0.7301	712.6
3000 kPa, x2 = 0.2111	671.1
3000 kPa, x2 = 0.3158	676.61
3000 kPa, x2 = 0.4411	685.01
3010 kPa, x2 = 0.7301	713.72
3020 kPa, x2 = 0.1631	668.96
3020 kPa, x2 = 0.8823	737.74
4000 kPa, x2 = 0.3158	677.77
4000 kPa, x2 = 0.8823	738.79
4010 kPa, x2 = 0.4411	686.15
4010 kPa, x2 = 0.7301	714.83
4020 kPa, x2 = 0.1631	670.09
4020 kPa, x2 = 0.2111	672.25
5000 kPa, x2 = 0.7301	715.96
5010 kPa, x2 = 0.1631	671.22
5010 kPa, x2 = 0.4411	687.28
5010 kPa, x2 = 0.8823	739.88
5020 kPa, x2 = 0.2111	673.37
5020 kPa, x2 = 0.3158	678.9
6010 kPa, x2 = 0.1631	672.33
6010 kPa, x2 = 0.4411	688.39
6010 kPa, x2 = 0.8823	740.91
6020 kPa, x2 = 0.2111	674.49
6020 kPa, x2 = 0.3158	680.02
6020 kPa, x2 = 0.7301	717.05
7000 kPa, x2 = 0.8823	741.99
7010 kPa, x2 = 0.1631	673.46
7010 kPa, x2 = 0.2111	675.59
7010 kPa, x2 = 0.4411	689.51
7010 kPa, x2 = 0.7301	718.15
7020 kPa, x2 = 0.3158	681.12
8000 kPa, x2 = 0.2111	676.71
8000 kPa, x2 = 0.3158	682.22
8000 kPa, x2 = 0.8823	743
8010 kPa, x2 = 0.1631	674.54
8010 kPa, x2 = 0.4411	690.61
8020 kPa, x2 = 0.7301	719.22
9000 kPa, x2 = 0.1631	675.63
9000 kPa, x2 = 0.4411	691.72
9000 kPa, x2 = 0.7301	720.31
9010 kPa, x2 = 0.2111	677.8
9010 kPa, x2 = 0.3158	683.34
9010 kPa, x2 = 0.8823	744.04
10010 kPa, x2 = 0.2111	678.85
10010 kPa, x2 = 0.3158	684.4
10010 kPa, x2 = 0.4411	692.81
10010 kPa, x2 = 0.8823	745.05
10020 kPa, x2 = 0.1631	676.71
10020 kPa, x2 = 0.7301	721.36
11000 kPa, x2 = 0.4411	693.87
11010 kPa, x2 = 0.2111	679.93
11010 kPa, x2 = 0.3158	685.49
11020 kPa, x2 = 0.1631	677.8
11020 kPa, x2 = 0.7301	722.39
11020 kPa, x2 = 0.8823	746.05
12000 kPa, x2 = 0.3158	686.55
12010 kPa, x2 = 0.2111	681
12010 kPa, x2 = 0.7301	723.42
12010 kPa, x2 = 0.8823	747.05
12020 kPa, x2 = 0.1631	678.83
12020 kPa, x2 = 0.4411	694.93
13000 kPa, x2 = 0.2111	682.04
13010 kPa, x2 = 0.3158	687.6
13010 kPa, x2 = 0.4411	695.99
13010 kPa, x2 = 0.8823	748.05
13020 kPa, x2 = 0.1631	679.88
13020 kPa, x2 = 0.7301	724.48
14000 kPa, x2 = 0.2111	683.07
14000 kPa, x2 = 0.7301	725.49
14000 kPa, x2 = 0.8823	749.02
14010 kPa, x2 = 0.1631	680.88
14010 kPa, x2 = 0.4411	697.01
14020 kPa, x2 = 0.3158	688.64
15000 kPa, x2 = 0.2111	684.09
15000 kPa, x2 = 0.8823	749.96
15010 kPa, x2 = 0.1631	681.89
15010 kPa, x2 = 0.3158	689.64
